One test concerns the target T1, hemoglobin (Hb) (Homo sapiens, UniProt P68871+P69905).
T1 construct: To assess the stability of hemoglobin in stool samples, samples were exposed to simulated shipping stress conditions; from tissue; host or cells: stool samples
In words: Appendix B: additives in Hb Collection Buffer, % Hb Recovery.

The target in a further test is T2, Hb (Homo sapiens, UniProt P68871+P69905).
T2 construct: To assess the stability of hemoglobin in stool samples, samples were exposed to simulated shipping stress conditions; from tissue; host or cells: stool samples
T2 sequence (P69905 2-142 limits assumed): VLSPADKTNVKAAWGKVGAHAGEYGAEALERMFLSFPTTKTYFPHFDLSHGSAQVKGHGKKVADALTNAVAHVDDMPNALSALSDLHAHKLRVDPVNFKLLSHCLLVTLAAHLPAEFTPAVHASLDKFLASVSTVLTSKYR
T2 sequence (P68871 2-147 limits assumed): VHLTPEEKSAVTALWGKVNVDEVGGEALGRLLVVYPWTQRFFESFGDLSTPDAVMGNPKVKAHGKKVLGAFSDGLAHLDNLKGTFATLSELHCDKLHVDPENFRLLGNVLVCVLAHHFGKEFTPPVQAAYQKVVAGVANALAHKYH
Briefly: Appendix B additive screen, % Hb Recovery.

Test [1] addresses T3, hemoglobin in stool samples (Homo sapiens, UniProt P68871+P69905). In words: 3-Day shipping simulation, hemoglobin % recovery by ELISA.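 As to all read-outs here: stool samples put through shipping stress in a thermal cycler, hemoglobin quantified by ELISA before and after, stability given as post-stress % of the pre-stress level.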 Further details: from tissue; host or cells: stool samples. To be noted: for Notes (Hb stability vs Hb Collection Buffer): additive concentrations as in the 8th table.
Test [2] concerns the target T3, hemoglobin in stool samples. In words: Accelerated shipping simulation (35C 16 hour challenge), hemoglobin % recovery by ELISA.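 Also: stool hemoglobin measured by ELISA before and after thermal-cycler shipping stress, stability given as percent of pre-stress hemoglobin recovered afterwards.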 Further details: from tissue; host or cells: stool samples.

T1 sequence (P69905 2-142 limits assumed): as the sequence (P69905 2-142 limits assumed) above
T1 sequence (P68871 2-147 limits assumed): as the sequence (P68871 2-147 limits assumed) above
T3 sequence (P69905 2-142 limits assumed): as the sequence (P69905 2-142 limits assumed) above
T3 sequence (P68871 2-147 limits assumed): as the sequence (P68871 2-147 limits assumed) above

In the case of `C=CC1=C(C)c2cc3[n-]c(cc4nc(cc5[n-]c(cc1n2)c(C)c5C=C)C(C)=C4CCC(=O)O)c(CCC(=O)O)c3C.[Cu+2]` [Protoporphyrin IX Copper], the Results result on hemoglobin (Hb) (Additive Concentration 0.1 uM), at hemoglobin (Hb) (Additive Concentration 1 uM) and at hemoglobin (Hb) (additive concentration 10 uM) was “No Improvement” in each case.

As to phosphatidylcholine, on Hb, the Results entry is “No Improvement”.

On to `O=S([O-])O.[Na+]` [Sodium Bisulfite], for which the Results result at Hb is given as “No Improvement”.

`[O-][Cl+3]([O-])([O-])O` [Sodium Perchlorate]: on Hb, the Results entry is on record as “No Improvement”.

Consider `O=P(O)(O)O` [Sodium Phosphate], for which, at Hb, the Results result is on record as “No Improvement”.

On to `[Br-].[Na+]` [Sodium Bromide], for which, on Hb, the Results result is “No Improvement”.

Consider `N.N.O=C(O)C(=O)O` [Ammonium Oxalate], for which the Results entry at Hb was “No Improvement”.

Consider `C=CC1=C(C)c2cc3[n-]c(cc4nc(cc5[n-]c(cc1n2)c(C)c5C=C)C(C)=C4CCC(=O)O)c(CCC(=O)O)c3C.[Zn+2]` [Protoprophyrin IX Zn], for which the Results entry on Hb is recorded as “No Improvement”.

Consider `C=CC1=C(C)c2cc3[n-]c(cc4nc(cc5[n-]c(cc1n2)c(C)c5CCC(=O)O)C(CCC(=O)O)=C4C)c(C)c3C=C.[Mg+2]` [Protoporphyrin IX Magnesium], for which the Results result on hemoglobin (Hb) (Additive Concentration 0.1 uM), on hemoglobin (Hb) (Additive Concentration 1 uM), on hemoglobin (Hb) (additive concentration 10 uM), at hemoglobin (Hb) (additive concentration 25 uM) and at hemoglobin (Hb) (additive concentration 50 uM) was “No Improvement” in each case.

For `O=c1c(O)c(-c2ccc(O)c(O)c2)oc2cc(O)cc(O)c12` [Quercetin], the Results entry in test [1] (Additive Concentration 150 uM) is reported as “No improvement”; in test [1] (Additive Concentration 300 uM) it was “No improvement”; in test [1] (Additive Concentration 600 uM), “No improvement”; in test [2] (additive concentration 0.6 uM), “No Improvement”; in test [2] (additive concentration 6 uM), “No Improvement”; in test [2] (additive concentration 60 uM), “No Improvement”.

For `C=CC1=C(C)c2cc3[n-]c(cc4nc(cc5[n-]c(cc1n2)c(C)c5C=C)C(C)=C4CCC(=O)O)c(CCC(=O)O)c3C.[Cl-].[Mn+3]` [Protoporphyrin IX Mangansese], the Results result on hemoglobin (Hb) (Additive Concentration 0.05 uM), on hemoglobin (Hb) (Additive Concentration 0.1 uM), at hemoglobin (Hb) (Additive Concentration 1 uM) and at hemoglobin (Hb) (additive concentration 10 uM) was “No Improvement” in each case.

With BSA, pH 6.5, the Results entry with hemoglobin (Hb) (Additive Concentration 0%), with hemoglobin (Hb) (Additive Concentration 0.50%), with hemoglobin (Hb) (Additive Concentration 1%), in the test with hemoglobin (Hb) (Additive Concentration 5%) and with hemoglobin (Hb) (Additive Concentration 10%) was “No Improvement” throughout.

In the case of `O=C1O[C@H]([C@@H](O)CO)C(O)=C1O` [Ascorbic Acid], the Results result is on record as “No improvement” in test [1] (additive concentration 0.5 mM); “No improvement” in test [1] (additive concentration 1 mM); “No improvement” in test [1] (additive concentration 5 mM); “No Improvement” in test [2] (additive concentration 0.2 uM); “No Improvement” in test [2] (additive concentration 5 uM); “No Improvement” in test [2] (additive concentration 10 uM). Moreover, the Results result in test [2] (additive concentration 100 uM), in test [2] (additive concentration 10 mM), in test [2] (additive concentration 25 mM) and in test [2] (additive concentration l uM) was “No Improvement” each time.

With `O=C(O)[C@H]1OC(O)[C@H](O)[C@@H](O)[C@H]1O` (stereo partly drawn) [Galaturonic Acid], the Results result at hemoglobin (Hb) (Additive Concentration 0.01%) is reported as “No Improvement”; on hemoglobin (Hb) (Additive Concentration 0.01% + 10 mM), “No improvement”; at hemoglobin (Hb) (Additive Concentration 0.10%), “No Improvement”; on hemoglobin (Hb) (Additive Concentration 0.1% + 10 mM), “No improvement”; at hemoglobin (Hb) (Additive Concentration 1%) it was “No Improvement”; at hemoglobin (Hb) (Additive Concentration 1% + 10 mM), “No improvement”.

On to `C=O` [Formaldehyde Solution], for which the Results entry in test [1] (additive concentration 0.010%), in test [1] (additive concentration 0.020%), in test [1] (additive concentration 0.030%), in test [1] (additive concentration 0.035%), in test [1] (additive concentration 0.040%) and in test [1] (additive concentration 0.050%) was “No Improvement” each time. In addition, the Results entry in test [1] (additive concentration 0.060%), in test [1] (additive concentration 0.070%), in test [1] (additive concentration 0.080%), in test [1] (additive concentration 0.090%), in test [1] (additive concentration 0.100%) and in test [1] (additive concentration […]) was “No Improvement” each time.

Regarding `O=C(NCO)N(CO)C1(CO)C(=O)NC(=O)N1CO` (stereo not drawn) [Diazolidinyl Urea], the Results entry in test [1] (additive concentration 10 mM), in test [1] (additive concentration 25 mM), in test [1] (additive concentration 50 mM), in test [1] (additive concentration 75 mM), in test [1] (additive concentration 100 mM) and in test [2] (additive concentration 10 uM) was “No Improvement” each time. The Results result in test [2] (additive concentration 100 uM), in test [2] (additive concentration 1 mM) and in test [2] (additive concentration 10 mM) was “No Improvement” each time.

With `[Cl][Co][Cl]` [Cobalt Chloride], the Results result in test [1] (additive concentration 0.001M), in test [1] (additive concentration 0.01M) and in test [1] (additive concentration 0.05M) was “No Improvement” throughout.

Consider `C=CC1=C(C)c2cc3[n-]c(cc4nc(cc5[n-]c(cc1n2)c(C)c5C=C)C(C)=C4CCC(=O)O)c(CCC(=O)O)c3C.[Cl-].[Fe+3]` [Hemin, pH 6.5], for which the Results entry on hemoglobin (Hb) (Additive Concentration 0.00%) and at hemoglobin (Hb) (additive concentration 0.0003%) was “Improvement in % Hb” throughout.

Turning to `Cc1c(C)c2c(c(C)c1O)CCC(C)(CCCC(C)CCCC(C)CCCC(C)C)O2` (stereo not drawn) [Tocopherol], the Results entry in test [1] (Additive Concentration 0.10%), in test [1] (Additive Concentration 1%) and in test [1] (Additive Concentration 10%) was “No improvement” throughout.

Consider `[Cl][Fe]([Cl])[Cl]` [Iron (3) Chloride], for which the Results result in test [1] (additive concentration 1 mM), in test [1] (additive concentration 5 mM) and in test [1] (additive concentration 10 mM) was “No Improvement” in each case.

`C=CC1=C(C)c2cc3[n-]c(cc4nc(cc5[n-]c(cc1n2)c(C)c5C=C)C(C)=C4CCC(=O)O)c(CCC(=O)O)c3C.[Cl-].[Cl-].[Sn+4]` [Protoporphyrin IX Tin]: the Results result at hemoglobin (Hb) (Additive Concentration 0.1 uM), on hemoglobin (Hb) (Additive Concentration 1 uM) and at hemoglobin (Hb) (additive concentration 10 uM) was “No Improvement” each time.

`O=c1cc(-c2ccccc2)oc2c(O)c(O)ccc12` [7,8 dihydroxyflavone]: the Results result in test [1] (additive concentration 0.5 mM) and in test [1] (additive concentration 1 mM) was “No improvement” each time.

As to `O=CCCCC=O` [Glutaraldehyde Solution], the Results entry in test [1] (additive concentration 0.010%), in test [1] (additive concentration 0.020%), in test [1] (additive concentration 0.030%), in test [1] (additive concentration 0.035%), in test [1] (additive concentration 0.040%) and in test [1] (additive concentration 0.050%) was “No Improvement” throughout. In addition, the Results entry in test [1] (additive concentration 0.060%) is “Assay Interference”; in test [1] (additive concentration 0.070%), “Assay Interference”; in test [1] (additive concentration 0.080%), “No Improvement”; in test [1] (additive concentration 0.090%), “No Improvement”; in test [1] (additive concentration 0.100%) it was “No Improvement”.

For the compound `O=c1c(-c2ccc(O)cc2)coc2cc(O)ccc12` [Diadzein], the Results entry in test [1] (Additive Concentration 60 mM), in test [1] (additive concentration 25 uM), in test [1] (additive concentration 50 uM), in test [1] (additive concentration 100 uM), in test [1] (additive concentration 40 mM) and in test [1] (additive concentration 50 mM) was “No improvement” throughout.

On to `[Ca+2].[Cl-].[Cl-]` [Calcium Chloride, pH 6.5], for which the Results entry at hemoglobin (Hb) (Additive Concentration 10 mM) is “No Improvement”.

Take `OC[C@H]1O[C@H](O[C@H]2O[C@H](CO)[C@@H](O)[C@H](O)[C@H]2O)[C@H](O)[C@@H](O)[C@@H]1O` [Trehalose]: the “Notes (Hb stability vs Hb Collection Buffer)” value in test [1] is listed as “Improved Hb”. In addition, the Results result was “No Improvement” in test [2] (additive concentration 0.0174 mM); “No Improvement” in test [2] (additive concentration 0.174 mM); “No Improvement” in test [2] (additive concentration 1.74 mM); “No Improvement” in test [2] (additive concentration 10 mM); “No Improvement” in test [2] (additive concentration 16.76 mM); “Improvement” in test [2] (additive concentration 0.3M).

For `OC[C@H]1O[C@@](CO)(O[C@H]2O[C@H](CO)[C@@H](O)[C@H](O)[C@H]2O)[C@@H](O)[C@@H]1O` [Sucrose], the “Notes (Hb stability vs Hb Collection Buffer)” value in test [1] was “Improved Hb”. In addition, in test [2] (additive concentration […]), the Results result is “Improvement”.

For the compound BSA (10 mM MOPS), the Results entry in test [1] (Additive Concentration 1%) is on record as “No Improvement”.

As to `N.N.N.O=C(O)C1=CC(=C(c2ccc(O)c(C(=O)O)c2)c2ccc(O)c(C(=O)O)c2)C=CC1=O` [aurintircarboxylic acid ammonium salt], the Results entry in test [1] (Additive Concentration 5%), in test [1] (Additive Concentration 10%) and in test [1] (Additive Concentration 25%) was “No improvement” throughout.

For the compound `[Cl][Cu][Cl]` [Copper Chloride], the Results entry in test [1] (additive concentration 1 mM), in test [1] (additive concentration 10 mM) and in test [1] (additive concentration 25 mM) was “No Improvement” throughout.
